Experimental findings from ChEMBL document CHEMBL1147791, “Polyamines and the NMDA receptor: modifying intrinsic activities with aromatic substituents” (Bioorg Med Chem Lett, 2006) are described below.

What all share (format): protein-complex assay
In assay [1] the target is T1, Glutamate NMDA receptor (Rattus norvegicus) (UniProt P35439+Q00959+Q00960+Q00961+Q62645+Q8VHN2+Q9R1M7). Put plainly: Attenuation at rat NMDA receptor assessed as ratio of inhibition of [3H]MK-801 binding to NMDA receptor in presence to absence of spermine.
In assay [2] the target is Glutamate NMDA receptor. Put plainly: Inhibition of [3H]MK-801 binding to rat NMDA receptor.
The target of assay [3] is T1, Glutamate NMDA receptor (Rattus norvegicus). Briefly: (§1) Stimulation of [3H]MK-801 binding to rat NMDA receptor.
The target in assay [4] is Glutamate NMDA receptor. The description is as §1.

A value given as a limit tells only on which side of the number the result lay.

On to `NCCCCN(CCCN)C(=O)OCc1ccccc1`, for which the Ratio IC50 in assay [1] amounted to 67. Besides, the 50% inhibitory concentration (IC50) at Glutamate NMDA receptor [2] turned out to be 17.6 µM.
With `NCCCN(CCCCN(CCCN)CCCc1ccccc1)CCCc1ccccc1`, the Ratio IC50 in assay [1] amounted to 2.6. The IC50 at Glutamate NMDA receptor [2] is 26.7 µM.
In the same order, the values of `O=C(Cc1ccccc1)NCCCNCCCCNCCCNC(=O)Cc1ccccc1` are > 10 and 103 µM.
In the case of `N=C(N)NCCCN(CCCCN(CCCNC(=N)N)CCCc1ccccc1)CCCc1ccccc1`, the Ratio IC50 in assay [1] was found to be 0.63. On Glutamate NMDA receptor [2], this molecule registered an IC50 of 11.2 µM.
The matching figures for `NCCCCN(CCCN)Cc1ccc2ccccc2c1`: 13.1 and 9.8 µM.
In the same order, the values of `c1ccc(CNCCCCNCCCNCc2ccccc2)cc1` are 5.9 and 6.2 µM.
Regarding `NCCCNCCCCN(CCCN)Cc1ccc2ccccc2c1`, the Ratio IC50 in assay [1] was 1.45. Further, the IC50 at Glutamate NMDA receptor [2] came to 58 µM.
In the same order, the values of `CC(C)NCCCN(CCCCN(CCCN)Cc1ccc2ccccc2c1)Cc1ccc2ccccc2c1` are 1.96 and 14 µM.
For `c1ccc(CCCNCCCCN(CCCNCCCc2ccccc2)CCCc2ccccc2)cc1`, the Ratio IC50 in assay [1] turned out to be 2.03. This molecule also gave an IC50 on Glutamate NMDA receptor [2] of 9.5 µM.
Regarding `O=C(NCCCCNCCCNC(=O)OCc1ccccc1)OCc1ccccc1`, in assay [1], the Ratio IC50 was > 10. At Glutamate NMDA receptor [2], this molecule displayed an IC50 of 56 µM.
As for `N=C(N)NCCCN(CCCCN(CCCN)CCCc1ccccc1)CCCc1ccccc1`, in assay [1], the Ratio IC50 was 1.5. At Glutamate NMDA receptor [2], this molecule gave an IC50 of 13 µM.
For the molecule `NCCCN(CCCCN(CCCNCCCc1ccccc1)CCCc1ccccc1)CCCc1ccccc1`, the Ratio IC50 in assay [1] was 1.44. The molecule also registered a 50% inhibitory concentration (IC50) on Glutamate NMDA receptor [2] of 13.1 µM.
The matching figures for `CC(C)(C)OC(=O)N(CCCN)CCCCN(CCCN)C(=O)OC(C)(C)C`: 5.3 and 6680 µM.
On to `O=C(NCCCCNCCCNC(=O)c1ccccc1)c1ccccc1`, for which the IC50 at Glutamate NMDA receptor [2] was > 300 µM.
As for `NCCCCN(CCCN)C(=O)c1ccccc1`, in assay [1], the Ratio IC50 is > 10. The same molecule gave an IC50 on Glutamate NMDA receptor [2] of 82 µM.
Turning to `NCCCCN(CCCN)Cc1ccccc1`, the IC50 at Glutamate NMDA receptor [2] is > 300 µM.
In the case of `NCCCNCCCCN(CCCN)CCCc1ccccc1`, the Ratio IC50 in assay [1] was determined as 0.93. The Activity in assay [3] was 26%. The same molecule registered an EC50 at Glutamate NMDA receptor [4] of 1.8 µM. The molecule also had an IC50 at Glutamate NMDA receptor [2] of 182 µM.
`c1ccc(CCCNCCCNCCCCNCCCNCCCc2ccccc2)cc1`: the Ratio IC50 in assay [1] came to 0.92. The same molecule gave an IC50 on Glutamate NMDA receptor [2] of 7.4 µM.
As for `c1ccc(CCCN(CCCNCCCCNCCCN(CCCc2ccccc2)CCCc2ccccc2)CCCc2ccccc2)cc1`, the Ratio IC50 in assay [1] was found to be 1.58. The molecule also gave an IC50 at Glutamate NMDA receptor [2] of 3.9 µM.
The matching figures for `c1ccc2cc(CN(CCCNCCCCNCCCN(Cc3ccc4ccccc4c3)Cc3ccc4ccccc4c3)Cc3ccc4ccccc4c3)ccc2c1`: 1.32 and 8.7 µM.
Take `CC(C)(C)OC(=O)N(CCCN)CCCCN`: the IC50 at Glutamate NMDA receptor [2] is > 300 µM.
`NCCCCN(CCCN)C1c2ccccc2CCc2ccccc21`: in assay [1], the Ratio IC50 was determined as 5.1. Also, the IC50 at Glutamate NMDA receptor [2] was found to be 14.2 µM.
In the same order, the values of `c1ccc2c(CNCCCCNCCCNCc3cccc4ccccc34)cccc2c1` are 2.2 and 4.37 µM.
In the same order, the values of `c1ccc2cc(CN(CCCCNCCCN(Cc3ccc4ccccc4c3)Cc3cccc4ccccc34)Cc3cccc4ccccc34)ccc2c1` are 1.66 and 14.3 µM.
In the same order, the values of `c1ccc2cc(CNCCCNCCCCNCCCNCc3ccc4ccccc4c3)ccc2c1` are 2.84 and 4.7 µM.
Consider `c1ccc(CCCNCCCN(CCCCN(CCCNCCCc2ccccc2)CCCc2ccccc2)CCCc2ccccc2)cc1`, for which, in assay [1], the Ratio IC50 is 1.49. At Glutamate NMDA receptor [2], the IC50 turned out to be 8.4 µM.
`NCCCNCCCCN(CCCN)Cc1ccccc1` yielded an Activity in assay [3] of 28%. Further, at Glutamate NMDA receptor [4], the EC50 was determined as 2.7 µM. The IC50 at Glutamate NMDA receptor [2] is > 300 µM.
Take `NCCCN(CCCCN(CCCN)C(=O)OCc1ccccc1)C(=O)OCc1ccccc1`: in assay [1], the Ratio IC50 is 4.7. This molecule yielded a half-maximal inhibitory concentration (IC50) on Glutamate NMDA receptor [2] of 17.2 µM.
With `c1ccc(CNCCCNCCCCNCCCNCc2ccccc2)cc1`, the Ratio IC50 in assay [1] stood at 2.27. Further, on Glutamate NMDA receptor [2], the IC50 came to 6.12 µM.
The matching figures for `NCCCN(CCCCN(CCCN)Cc1ccc2ccccc2c1)Cc1ccc2ccccc2c1`: 2.2 and 9.1 µM.
The matching figures for `NCCCNCCCCNCCCNCCCc1ccccc1`: 1.43 and 25.6 µM.
Turning to `NCCCCN(CCCN)CCCc1ccccc1`, at Glutamate NMDA receptor [2], the IC50 is > 300 µM.
Regarding `CC(C)NCCCN(CCCCN(CCCNC(C)C)Cc1ccc2ccccc2c1)Cc1ccc2ccccc2c1`, the Ratio IC50 in assay [1] was 0.48. For the same molecule, the IC50 at Glutamate NMDA receptor [2] worked out at 44.6 µM.
The matching figures for `NCCCN(CCCCN(CCCN)Cc1ccccc1)Cc1ccccc1`: 4.3 and 38 µM.
